Key:
[1] = biological target: T1, cellodextrin phosphorylase (CDP) (Acetivibrio thermocellus, UniProt Q93HT8); test: X-ray crystallography, […] Å; type: binding
T1 construct: gene cdp-ym4

[2] = biological target: T1, cellodextrin phosphorylase (CDP); test: capillary electrophoresis competition assay of glucan polymerization; type: biochemical
[3] = substrate: OC[C@H]1O[C@@H](Oc2ccccc2)[C@H](O)[C@@H](O)[C@@H]1O; test: phosphate release assay, Michaelis-Menten fit; type: biochemical, Acetivibrio thermocellus; conditions: acceptor, synthetic direction, 10 mM Glc-1-P, HEPES 50 mM pH 7.5, 21 °C

`O=P(O)(O)O` [phosphate] was tested, and the “X-ray crystallography, 3.0 Å” value ([1]; crystal grown with 10 mM phosphate buffer, active site, adjacent to the glucan) was “interpreted as a cellotetraose molecule with an adjacent phosphate ion”.

For `OC[C@H]1O[C@@H](O[C@H]2[C@H](O)[C@@H](O)[C@H](O[C@H]3[C@H](O)[C@@H](O)[C@H](O[C@H]4[C@H](O)[C@@H](O)C(O)O[C@@H]4CO)O[C@@H]3CO)O[C@@H]2CO)[C@H](O)[C@@H](O)[C@@H]1O` (stereo partly drawn) [(β-1→4-Glc)4], the “X-ray crystallography, 3.0 Å” value ([1]; crystal soaked with 10 mM cellohexaose, density modelled as cellotetraose, with phosphate, active site subsites −1 to +3) was “additional electron density in the active site cleft, which was interpreted as a cellotetraose molecule”.

In the case of `OC1OC[C@@H](O[C@@H]2OC[C@@H](O[C@@H]3OC[C@@H](O)[C@H](O)[C@H]3O)[C@H](O)[C@H]2O)[C@H](O)[C@H]1O` (stereo partly drawn) [(β-1→4-Xyl)3], the “capillary electrophoresis competition assay of glucan polymerization” value ([2]; 10 mM xylotriose vs 13.5 μM (β-1→4-Glc)6-APTS, 10 mM Glc-1-P, HEPES 50 mM pH 7.5, 40 °C, acceptor competition) is reported as “suggesting binding of xylotriose to the active site of the enzyme”.

In the case of `N[C@H]1[C@H](O[C@H]2[C@H](O)[C@@H](O)[C@H](O[C@H]3[C@H](O)[C@@H](O)C(O)O[C@@H]3CO)O[C@@H]2CO)O[C@H](CO)[C@@H](O)[C@@H]1O` (stereo partly drawn) [(β-1→4-GlcN(Glc)2)], the “capillary electrophoresis competition assay of glucan polymerization” value ([2]; 5 mM trisaccharide vs 0.5 mM (β-1→4-Glc)3-APTS, 50 mM Glc-1-P, HEPES 50 mM pH 7.6, 40 °C, acceptor competition, also an acceptor substrate) is reported as “the average extension of (β-1→4-Glc)3-APTS reduced substantially”.

With `O=P(O)(O)O[C@H]1O[C@H](CO)[C@@H](O)[C@H](O)[C@@H]1O` [Man-1-P] the “capillary electrophoresis competition assay of glucan polymerization” value ([2]; 10 mM Man-1-P vs 1 mM Glc-1-P and 2 μM (β-1→4-Glc)6-APTS, HEPES 50 mM pH 7.5, 40 °C, competitive with donor) was “Man-1-P caused a great decrease in glucan oligomer length”.

B1: cellodextrin phosphorylase (CDP) (Acetivibrio thermocellus) (protein)
chain: MITKVTARNNKITPVELLNQKFGNKINLGNFADAVFTDAAFKNVAGIANLPMKAPVMQVLMENCIVSKYLKQFVPDRSVCFVEEGQKFYIVLEDGQKIEVPEDVNKALKATVSDVKHWAGYLTEDGEHVIDLLKPAPGPHFYVNLLIGNRLGFKRTLQTTPKSVVDRFGRGSFRSHAATQVLATRFDMRQEENGFPANRQFYLYEDGKQIFYSALIDDNIVEATCKHSCNRTVIKYKTACNLEITRTIFLVPHKKGFPLATELQRIEIKNASDKARNLSITYTGMFGTGAVHAIFEDVTYTNVIMQSAALYNDKGEFIGITPDYYPEEFKQDTRFVTMIVRNGDEKSFPQSFCTDYNDFVGTGTLEHPAGGCNLNNKLNRKGPGFFALGAPFTVEPGKTVIIDTFTGLSSSKDNENYSDAVMLRELDNLLRYFEKSESVEETLNEIINFHENYGKYFQFNTGNKLFDSGFNRNLAFQVLYQTFMSRSFGQTQKGYREIGFREIQDLFASMYYFINIGYQDFVKELLFEWTANVYKMGYANHNFYWVGKQPGLYSDDSLWLLQAYYRYIIYTKDTSVLNEEVPVADGNNEKRAVRETLKAIIQYSACISVGDHGLPLLDLADWNDCLKIASNSIDGATKEKLYYEQLKKTNGKYGDRFMSDYSESVMNAFLLKLAIDHLAEIATLDNDTQLAQQMSELSKEVTDRIQKHAWKENFFARVLINRYKDGSYTYLGAKGDKLSADPNIDGVYFLNSFAWSVLSDVATDEQIAIMVDVIKKHLLTPYGLRLVTPADLNKIANDTATGHYFFGDRENGAVFKHASMMAVAALIKAAKKVKDNELAKEMARIAYFMIDLVLPYKNLENPFQVAGNPRICTQYINTDTGENIGPLLSGTATWLNLNLISLAGIEYTRDGISFNPILREEETQLNFTLKAPKCSYKFSITKPVGFARMESSEYELFVDGQKIDNTVIPMYTDEKEHIVTLKFK
B1 was tested, and the Km [3] was 24 ± 13 mM, the kcat [3] was 15 ± 6.3 s⁻¹ and the kcat/Km [3] was 630 M⁻¹ s⁻¹.

From PMC5667895, “Cellodextrin phosphorylase from Ruminiclostridium thermocellum: X-ray crystal structure and substrate specificity analysis” (Carbohydrate Research, 2017)
